One test has as its target T1, AKR1A1 (Homo sapiens, UniProt P14550).
T1 construct: 6xHis; made in house; host or cells: E. coli BL21 (DE3)
T1 sequence (P14550 1-325): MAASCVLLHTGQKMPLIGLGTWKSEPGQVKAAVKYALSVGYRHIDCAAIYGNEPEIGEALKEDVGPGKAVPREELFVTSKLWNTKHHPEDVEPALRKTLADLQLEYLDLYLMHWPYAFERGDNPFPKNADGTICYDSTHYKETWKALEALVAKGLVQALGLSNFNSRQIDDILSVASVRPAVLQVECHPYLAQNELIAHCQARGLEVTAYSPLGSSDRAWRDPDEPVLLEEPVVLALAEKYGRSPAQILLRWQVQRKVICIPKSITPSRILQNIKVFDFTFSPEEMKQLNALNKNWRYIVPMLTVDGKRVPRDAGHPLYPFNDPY
Nature of the test: AKR1A1 inhibition, DL-glyceraldehyde reduction (NADPH decrease at 340 nm). In kind it is biochemical. The settings on record: AKR1A1, Glyceraldehyde [3.6 mM]. As to the method: The carbonyl-reducing enzymes AKR1A1, AKR1B1, AKR1B10 were prepared in an Escherichia coli expression system according to previously published methods: plasmids of AKR1A1 and AKR1B1 were friendly gifts from Prof. Dr. Vladimir Wsol and Dr. Nina Kassner; information about production and purification of AKR1B10 [19] has been published before (sequences of all obtained plasmids containing the specific inserts were verified by sequencing (MWG Eurofins)). The plasmids were then transformed in E. coli BL21 (DE3) cells. For overexpression of 6× His-tagged enzymes, a 400 mL culture (containing the appropriate antibiotic; plasmid dependent) was grown to optical density of 0.6 at 600 nm at 37 °C. […] Purification progress was monitored by SDS-PAGE of the obtained fractions (not shown). Enzyme concentrations were determined using a Qubit 2.0 fluorometric quantitation system (Life Technologies, Carlsbad, CA, USA) according to the manufacturer’s instructions.
(§1) Catalytic properties were determined by measuring the decrease in absorbance at 340 nm (Cary 100 scan photometer, Varian, CA, USA). […]
(§2) For inhibition studies, stock solutions of inhibitors were prepared in H2O (iso-α-acid mixture) and DMSO (α-acid mixture and compounds 1–3 purified from the same mixture). […] The percentage of inhibition was calculated considering the activity in the absence of inhibitor to be 100%. […]

For test [1], the target named is T2, AKR1B10 (Homo sapiens, UniProt O60218).
T2 construct: 6xHis; made in house; host or cells: E. coli BL21 (DE3)
Briefly: AKR1B10-mediated farnesal reduction inhibition. In kind it is biochemical. The settings on record: for IC50 / Ki: AKR1B10, Farnesal [5 µM], mean ± SD; for Mode of inhibition: AKR1B10, farnesal reduction. As to the method: (§3) The carbonyl-reducing enzymes AKR1A1, AKR1B1, AKR1B10 were prepared in an Escherichia coli expression system according to previously published methods: plasmids of AKR1A1 and AKR1B1 were friendly gifts from Prof. Dr. Vladimir Wsol and Dr. Nina Kassner; information about production and purification of AKR1B10 [19] has been published before (sequences of all obtained plasmids containing the specific inserts were verified by sequencing (MWG Eurofins)). The plasmids were then transformed in E. coli BL21 (DE3) cells. For overexpression of 6× His-tagged enzymes, a 400 mL culture (containing the appropriate antibiotic; plasmid dependent) was grown to optical density of 0.6 at 600 nm at 37 °C. Expression was induced by adding isopropyl-1-thio-galactopyranoside to the culture medium (final concentration of 1 mM). After 3 h, cells were harvested by centrifugation (6000× g, 15 min) and resuspended in 20 mL PBS-I buffer (20 mM Na2H2PO4, 500 mM NaCl, 10 mM imidazole, 10% v/v glycerol, pH 7.4). Cell disruption was performed by ultrasonication with cooling on ice to avoid heating. The sample was subsequently centrifuged at 100,000× g at 4 °C for 1 h. The obtained supernatants containing the respective enzymes were purified using Ni-affinity chromatography (ÄKTA-Purifier; Amersham Pharmacia, Uppsala, Sweden) using PBS-II buffer (20 mM Na2H2PO4, 500 mM NaCl, 500 mM imidazole, 10% v/v glycerol, pH 7.4). Purification progress was monitored by SDS-PAGE of the obtained fractions (not shown). Enzyme concentrations were determined using a Qubit 2.0 fluorometric quantitation system (Life Technologies, Carlsbad, CA, USA) according to the manufacturer’s instructions.
(§4) Catalytic properties were determined by measuring the decrease in absorbance at 340 nm (Cary 100 scan photometer, Varian, CA, USA). A reaction mixture without inhibitor consisted of different concentrations of DL-glyceraldehyde or farnesal, 200 μM NADPH, 0.1 M NaH2PO4 buffer (pH 7.4) and an appropriate amount of enzyme in a total assay volume of 0.8 mL. Final enzyme concentrations in the assay ranged from 222 nM (AKR1A1) to 899 nM (AKR1B10). KM values were obtained by fitting the kinetic data (mean ± SD from at least three experiments) to the Michaelis‒Menten model, as implemented in GraphPad Prism6 (GraphPad Software Inc., La Jolla, CA, USA).
(§5) For inhibition studies, stock solutions of inhibitors were prepared in H2O (iso-α-acid mixture) and DMSO (α-acid mixture and compounds 1–3 purified from the same mixture). […] When collecting data for dose–response curves initial velocities of DL-glyceraldehyde or farnesal reduction (substrate concentration at KM) in the presence of inhibitors were assayed as described above. The percentage of inhibition was calculated considering the activity in the absence of inhibitor to be 100%.
(§6) For IC50 determination, experimental data were normalised and fitted to a sigmoidal curve as implemented in GraphPad Prism6 (GraphPad Software Inc., La Jolla, CA, USA). Whenever tight-binding inhibition was observed, the inhibition constant Ki was determined by fitting inhibition data to the Morrison equation [43]. In order to verify the inhibitory potency, farnesal as an enzyme-specific physiological substrate for AKR1B10 (farnesal; KM = 5 µM) was used to determine inhibition parameters. Enzyme inhibition parameters were assayed as described above. The inhibition mechanism of each compound for AKR1B10 was analysed by plotting IC50-values at different substrate concentrations (at least five inhibitor and substrate concentrations). All data obtained were plotted and analysed using GraphPad Prism6 (GraphPad Software Inc., La Jolla, CA, USA).

For test [2], the target named is T2, AKR1B10. Briefly: AKR1B10 inhibition, DL-glyceraldehyde reduction (NADPH decrease at 340 nm). The settings on record: for IC50 / Ki: AKR1B10, Glyceraldehyde [4.0 mM], mean ± SD; for Ki: read-out: Ki (Morrison); for Ratio AKR1A1/AKR1B10 / Ratio AKR1B1/AKR1B10: IC50-ratio, glyceraldehyde as substrate. The format is biochemical. As to the method: as §3, §4, §5
Initially, the half maximal inhibitory concentrations (IC50 values) were determined for each inhibitor in presence of each enzyme, using the shared substrate DL-glyceraldehyde (set to their specific KM; 3.6 mM, 50 μM and 4 mM for AKR1A1, AKR1B1 and AKR1B10, respectively) to assess specificity amongst the structurally similar members of the AKR-superfamily.
as §6, with “All data obtained were plotted and analysed using GraphPad Prism6 (GraphPad Software Inc., La Jolla, CA, USA).” left out

Another test has as its system cyclooxygenase-1. More on the design: method as in PMID 10631313. The note with it: cited from earlier work.
The target of another test is cyclooxygenase-2. More on the design: method as in PMID 10631313. The note with it: cited from earlier work.
Another test concerns the target T3, AKR1B1 (Homo sapiens, UniProt P15121).
T3 construct: 6xHis; made in house; host or cells: E. coli BL21 (DE3)
Nature of the test: AKR1B1 inhibition, DL-glyceraldehyde reduction (NADPH decrease at 340 nm). The format is biochemical. The settings on record: AKR1B1, Glyceraldehyde [50 µM]. As to the method:
as §3, with “The sample was subsequently centrifuged at 100,000× g at 4 °C for 1 h. The obtained supernatants containing the respective enzymes were purified using Ni-affinity chromatography (ÄKTA-Purifier; Amersham Pharmacia, Uppsala, Sweden) using PBS-II buffer (20 mM Na2H2PO4, 500 mM NaCl, 500 mM imidazole, 10% v/v glycerol, pH 7.4).” left out
as §1, §2
For IC50 determination, experimental data were normalised and fitted to a sigmoidal curve as implemented in GraphPad Prism6 (GraphPad Software Inc., La Jolla, CA, USA). Whenever tight-binding inhibition was observed, the inhibition constant Ki was determined by fitting inhibition data to the Morrison equation [43]. […]

The subject of test [3] is AKR1B10. More on the design: method as in PMID 23123477. The note with it: cited from earlier work.
Test [4] deals with AKR1B10. More on the design: method as in PMID 27665999. The settings on record: cited from earlier work.

What is called IC50 is the concentration that inhibits the measured activity by half. The term Ki denotes the equilibrium dissociation constant of an inhibitor or competing ligand from its target.

A value given as a limit tells only on which side of the number the result lay.

T2 sequence (O60218 whole entry): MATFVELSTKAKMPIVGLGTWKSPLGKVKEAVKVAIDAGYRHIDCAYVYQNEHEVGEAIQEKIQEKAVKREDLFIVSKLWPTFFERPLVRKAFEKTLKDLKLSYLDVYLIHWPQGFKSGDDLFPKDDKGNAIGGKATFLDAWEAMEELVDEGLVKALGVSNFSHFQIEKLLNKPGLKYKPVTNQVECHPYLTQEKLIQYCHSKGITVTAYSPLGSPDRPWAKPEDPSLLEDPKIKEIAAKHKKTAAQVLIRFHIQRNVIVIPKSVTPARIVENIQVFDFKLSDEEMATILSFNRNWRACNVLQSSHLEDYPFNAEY

Take `CC(C)=CCC1C(=O)C(C(=O)CC(C)C)=C(O)C(O)(CC=C(C)C)C1=O` (stereo not drawn) [Compound 3, n-humulone]: the IC50 against AKR1A1 is over 100 µM. Also, at AKR1B10 [1], the IC50 was found to be 7.78 ± 0.43 µM, affinity was put at a Ki of 3.94 ± 0.33 µM and the Mode of inhibition result was “non-competitive”. On AKR1B10 [2], the IC50 stood at 1940 ± 100 nM, the Ki stood at 980 ± 120 nM, the “Ratio AKR1A1/AKR1B10” value is listed as over 52 and the “Ratio AKR1B1/AKR1B10” value is reported as over 64. The “inhibition of cyclooxygenase-1” value in the test on cyclooxygenase-1 is “not inhibited at concentrations below 10 µM”. Further, at cyclooxygenase-2, the IC50 is 1600 nM. For the same compound, the IC50 against AKR1B1 was over 125 µM.

With `CC(C)=CCC1=C(O)C(O)(CC=C(C)C)C(=O)C(C(=O)C(C)C)=C1O` (stereo in doubt) [Compound 2, cohumulone], the IC50 against AKR1A1 was over 100 µM. For the same compound, on AKR1B10 [1], the IC50 turned out to be 29.8 ± 1.72 µM, the Ki was 16.5 ± 1.74 µM and the Mode of inhibition entry is given as “non-competitive”. Moreover, on AKR1B10 [2], the IC50 worked out at 1350 ± 70 nM, the Ki turned out to be 700 ± 90 nM, the “Ratio AKR1A1/AKR1B10” value is over 74 and the “Ratio AKR1B1/AKR1B10” value is given as over 93. For the same compound, on AKR1B1, the half-maximal inhibitory concentration (IC50) is over 125 µM.

With `CCC(C)C(=O)C1=C(O)C(CC=C(C)C)=C(O)[C@](O)(CC=C(C)C)C1=O` (stereo partly drawn) [Compound 1, adhumulone], at AKR1B10 [1], the IC50 turned out to be 29.3 ± 1.53 µM, the Ki is 16.8 ± 1.33 µM and the Mode of inhibition entry was “competitive”. Further, at AKR1B10 [2], inhibition was half-maximal at 5410 ± 420 nM (IC50), the Ki was determined as 3270 ± 520 nM, the “Ratio AKR1A1/AKR1B10” value was at least 19 and the “Ratio AKR1B1/AKR1B10” value is given as over 23. Moreover, the IC50 at AKR1B1 is over 125 µM.

Regarding `CC(C)=CCc1c(O)cc2oc3cc(O)c(O)c(CC=C(C)C)c3c(=O)c2c1O` [γ-mangostin], the IC50 in the test on AKR1B10 [3] was 18 nM.

`CCCCC/C=C\C/C=C\C/C=C\C/C=C\CCCC(=O)O` [arachidonic acid]: the Ki on AKR1B10 [4] was 260 nM.

The values are drawn from article PMC6278539, “Selective Inhibition of Human AKR1B10 by n-Humulone, Adhumulone and Cohumulone Isolated from Humulus lupulus Extract” (Molecules, 2018).
